By IC50 is commonly meant the concentration that gives 50% inhibition.

IDO, sequence (P14902 whole entry): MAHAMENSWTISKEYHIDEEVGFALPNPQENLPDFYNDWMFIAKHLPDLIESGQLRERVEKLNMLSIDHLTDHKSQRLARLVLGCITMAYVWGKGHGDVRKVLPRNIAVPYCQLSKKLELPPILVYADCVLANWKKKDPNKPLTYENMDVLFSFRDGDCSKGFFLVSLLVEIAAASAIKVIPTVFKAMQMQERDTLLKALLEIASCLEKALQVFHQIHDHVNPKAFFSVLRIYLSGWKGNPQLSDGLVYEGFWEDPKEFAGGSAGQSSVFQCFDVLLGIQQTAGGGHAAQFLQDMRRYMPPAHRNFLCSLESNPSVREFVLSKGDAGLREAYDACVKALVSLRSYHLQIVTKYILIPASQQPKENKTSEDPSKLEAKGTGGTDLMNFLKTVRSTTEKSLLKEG

This assay has as its target IDO (Homo sapiens, UniProt P14902). The experiment in a line: LLE_IDO_ABS_DR (IDO assay).
Molecule `Cc1ccc(NC(=O)Nc2cc(-c3ccccc3-c3nnn[nH]3)ccc2N2CCC(c3ccccc3)C2)cn1` (racemic) [Example 368, (±)-1-(6-Methylpyridin-3-yl)-3-(4-(3-phenylpyrrolidin-1-yl)-2′-(1H-tetrazol-5-yl)-[1,1′-biphenyl]-3-yl)urea] yielded an IC50 of 2500 nM.
Molecule `O=C(Nc1ccc(OC(F)(F)F)cc1)Nc1cc(-c2ccccc2-c2nnn[nH]2)ccc1N1CCC(c2ccccc2)C1` (racemic) [Example 369, (±)-1-(4-(3-Phenylpyrrolidin-1-yl)-2′-(1H-tetrazol-5-yl)-[1,1′-biphenyl]-3-yl)-3-(4-(trifluoromethoxy)phenyl)urea] showed an IC50 of 520 nM.
In the case of `O=C(Nc1ccc(F)nc1)Nc1cc(-c2ccccc2-c2nnn[nH]2)ccc1N1CCC(c2ccccc2)C1` (racemic) [Example 371, (±)-1-(6-Fluoropyridin-3-yl)-3-(4-(3-phenylpyrrolidin-1-yl)-2′-(1H-tetrazol-5-yl)-[1,1′-biphenyl]-3-yl)urea], the IC50 was found to be 3740 nM.
`Cc1cc(NC(=O)Nc2cc(-c3ccccc3-c3nnn[nH]3)ccc2N2CCC(c3ccccc3)C2)on1` (racemic) [Example 372, (±)-1-(3-Methylisoxazol-5-yl)-3-(4-(3-phenylpyrrolidin-1-yl)-2′-(1H-tetrazol-5-yl)-[1,1′-biphenyl]-3-yl)urea] returned an IC50 of 1940 nM.
For `Cc1ccc(NC(=O)Nc2cc(-c3ccccc3NS(=O)(=O)C(F)(F)F)ccc2N(CC(C)C)CC(C)C)cc1` [Example 4, N-(4′-(Diisobutylamino)-3′-(3-p-tolylureido)biphenyl-2-yl)-1,1,1-trifluoromethanesulfonamide], the IC50 amounted to 80 nM.
The value for `Cc1ccc(NC(=O)Nc2cc(-c3ccccc3-c3nnn[nH]3)cc(F)c2N(CC(C)C)CC(C)C)cc1` [Example 5, 1-(4-(Diisobutylamino)-5-fluoro-2′-(1H-tetrazol-5-yl)biphenyl-3-yl)-3-p-tolylurea] was 4.05 nM; that for `Cc1ccc(NC(=O)Nc2cc(-c3ccccc3C(=O)O)cc(F)c2N(CC(C)C)CC(C)C)cc1` [Example 6, 4′-(Diisobutylamino)-3′-fluoro-5′-(3-p-tolylureido)biphenyl-2-carboxylic acid] was 6.47 nM.
In turn, `CC(C)CN(CC(C)C)c1ccc(-c2ccccc2-c2nnn[nH]2)cc1NC(=O)Nc1nccs1` [Example 7, 1-(4-(Diisobutylamino)-2′-(1H-tetrazol-5-yl)biphenyl-3-yl)-3-(thiazol-2-yl)urea] had an IC50 of 20 nM.
`Cc1ccc(NC(=O)Nc2cc(-c3ccccc3C(=O)O)ccc2N(CCC(F)(F)F)Cc2ccccc2)cc1` [Example 8, 4′-(Benzyl(3,3,3-trifluoropropyl)amino)-3′-(3-(p-tolyl)ureido)-[1,1′-biphenyl]-2-carboxylic acid]: the IC50 came to 180 nM.
Molecule `Cc1ccc(NC(=O)Nc2cc(-c3cc(F)ccc3C(=O)O)ccc2N(CCC(F)(F)F)Cc2ccccc2)cc1` [Example 9, 4′-(Benzyl(3,3,3-trifluoropropyl)amino)-5-fluoro-3′-(3-(p-tolyl)ureido)-[1,1′-biphenyl]-2-carboxylic acid] had an IC50 of 350 nM.
The value for `Cc1ccc(NC(=O)Nc2cc(-c3ccccc3-c3nnn[nH]3)ccc2N(CCC(F)(F)F)Cc2ccccc2)cc1` [Example 10, 1-(4-(Benzyl(3,3,3-trifluoropropyl)amino)-2′-(1H-tetrazol-5-yl)-[1,1′-biphenyl]-3-yl)-3-(p-tolyl)urea] was 100 nM; that for `Cc1ccc(NC(=O)Nc2cc(-c3ccccc3C(=O)O)ccc2N(CCC(F)(F)F)Cc2cccc(Cl)c2)cc1` [Example 11, 4′-((3-Chlorobenzyl)(3,3,3-trifluoropropyl)amino)-3′-(3-(p-tolyl)ureido)-[1,1′-biphenyl]-2-carboxylic acid] was 250 nM; that for `Cc1ccc(NC(=O)Nc2cc(-c3cc(F)ccc3C(=O)O)ccc2N(CCC(F)(F)F)Cc2cccc(Cl)c2)cc1` [Example 12, 4′-((3-Chlorobenzyl)(3,3,3-trifluoropropyl)amino)-5-fluoro-3′-(3-(p-tolyl)ureido)-[1,1′-biphenyl]-2-carboxylic acid] was 220 nM.
Molecule `Cc1ccc(NC(=O)Nc2cc(-c3cc(F)ccc3C(=O)O)ccc2N(CCC(F)(F)F)Cc2ccc(Cl)cc2)cc1` [Example 15, 4′-((4-Chlorobenzyl)(3,3,3-trifluoropropyl)amino)-5-fluoro-3′-(3-(p-tolyl)ureido)-[1,1′-biphenyl]-2-carboxylic acid] had an IC50 of 90 nM.
`Cc1ccc(NC(=O)Nc2cc(-c3ccccc3C(=O)O)ccc2N(CCC(F)(F)F)Cc2ccccc2Cl)cc1` [Example 17, 4′-((2-Chlorobenzyl)(3,3,3-trifluoropropyl)amino)-3′-(3-(p-tolyl)ureido)-[1,1′-biphenyl]-2-carboxylic acid] had an IC50 of 270 nM.
The molecule `Cc1ccc(NC(=O)Nc2cc(-c3cc(F)ccc3C(=O)O)ccc2N(CCC(F)(F)F)Cc2ccccc2Cl)cc1` [Example 18, 4′-((2-Chlorobenzyl)(3,3,3-trifluoropropyl)amino)-5-fluoro-3′-(3-(p-tolyl)ureido)-[1,1′-biphenyl]-2-carboxylic acid] yielded an IC50 of 630 nM.
On to `Cc1ccc(NC(=O)Nc2cc(-c3ccccc3C(=O)O)ccc2N(Cc2ccccc2)CC(F)F)cc1` [Example 20, 4′-(Benzyl(2,2-difluoroethyl)amino)-3′-(3-(p-tolyl)ureido)-[1,1′-biphenyl]-2-carboxylic acid], for which the IC50 is 130 nM.
Consider `Cc1ccc(NC(=O)Nc2cc(-c3cc(F)ccc3C(=O)O)ccc2N(Cc2ccccc2)CC(F)F)cc1` [Example 21, 4′-(Benzyl(2,2-difluoroethyl)amino)-5-fluoro-3′-(3-(p-tolyl)ureido)-[1,1′-biphenyl]-2-carboxylic acid], for which half-maximal inhibition (IC50) required 150 nM.
The value for `Cc1ccc(NC(=O)Nc2cc(-c3ccccc3-c3nnn[nH]3)ccc2N(Cc2ccccc2)CC(F)F)cc1` [Example 22, 1-(4-(Benzyl(2,2-difluoroethyl)amino)-2′-(1H-tetrazol-5-yl)-[1,1′-biphenyl]-3-yl)-3-(p-tolyl)urea] was 30 nM.
Consider `C#CCN(CC(C)C)c1ccc(-c2cc(F)ccc2C(=O)O)cc1NC(=O)Nc1ccc(C)cc1` [Example 23, 5-Fluoro-4′-(isobutyl(prop-2-yn-1-yl)amino)-3′-(3-(p-tolyl)ureido)-[1,1′-biphenyl]-2-carboxylic acid], for which the IC50 worked out at 450 nM.
In the case of `C#CCN(CC(C)C)c1ccc(-c2ccccc2-c2nnn[nH]2)cc1NC(=O)Nc1ccc(C)cc1` [Example 24, 1-(4-(Isobutyl(prop-2-yn-1-yl)amino)-2′-(1H-tetrazol-5-yl)-[1,1′-biphenyl]-3-yl)-3-(p-tolyl)urea], it took 10 nM to reach half-maximal inhibition (IC50).
Molecule `Cc1ccc(NC(=O)Nc2c(N(CC(C)C)CC(C)C)ccc(-c3ccccc3-c3nnn[nH]3)c2F)cc1` [Example 25, 1-(4-(Diisobutylamino)-2-fluoro-2′-(1H-tetrazol-5-yl)-[1,1′-biphenyl]-3-yl)-3-(p-tolyl)urea] yielded an IC50 of 30 nM.
The molecule `Cc1ccc(NC(=O)Nc2c(N(CC(C)C)CC(C)C)ccc(-c3ccccc3C(=O)O)c2F)cc1` [Example 26, 4′-(Diisobutylamino)-2′-fluoro-3′-(3-(p-tolyl)ureido)-[1,1′-biphenyl]-2-carboxylic acid] came in with an IC50 of 370 nM.
The value for `Cc1ccc(NC(=O)Nc2cc(-c3ccccc3-c3nnn[nH]3)ccc2N(CC(C)C)CC(C)CC(F)(F)F)cc1` (centres unmarked) [Example 27, 1-(4-(Isobutyl(4,4,4-trifluoro-2-methylbutyl)amino)-2′-(1H-tetrazol-5-yl)-[1,1′-biphenyl]-3-yl)-3-(p-tolyl)urea] was 2.55 nM.
The value for `Cc1ccc(NC(=O)Nc2cc(-c3ccccc3C(=O)O)ccc2N(CC(C)C)CC(C)CC(F)(F)F)cc1` (centres unmarked) [Example 28, 4′-(Isobutyl(4,4,4-trifluoro-2-methylbutyl)amino)-3′-(3-(p-tolyl)ureido)-[1,1′-biphenyl]-2-carboxylic acid] was 10 nM; that for `[2H]C([2H])(C(C)C)N(c1ccc(-c2ccccc2-c2nnn[nH]2)cc1NC(=O)Nc1ccc(C)cc1)C1CCCCC1` [Example 29, 1-(4-(Cyclohexyl(1,1-dideutero-2-methylpropyl)amino)-2′-(1H-tetrazol-5-yl)biphenyl-3-yl)-3-p-tolylurea] was 4.76 nM.
As for `[2H]C([2H])(C(C)C)N(c1ccc(-c2ccccc2C(=O)O)cc1NC(=O)Nc1ccc(C)cc1)C1CCCCC1` [Example 30, 4′-(Cyclohexyl(1,1-dideutero-2-methylpropyl)amino)-3′-(3-p-tolylureido)biphenyl-2-carboxylic acid], the IC50 was 5.19 nM.
Molecule `[2H]C([2H])(C(C)C)N(c1ccc(-c2cc(F)ccc2C(=O)O)cc1NC(=O)Nc1ccc(C)cc1)C1CCCCC1` [Example 31, 4′-(Cyclohexyl(1,1-dideutero-2-methylpropyl)amino)-5-fluoro-3′-(3-p-tolylureido)biphenyl-2-carboxylic acid] returned an IC50 of 5.18 nM.
Under `[2H]C([2H])(C(C)C)N(c1ccc(-c2ccccc2-c2nnn[nH]2)cc1NC(=O)Nc1ccccc1F)C1CCCCC1` [Example 32, 1-(4-(Cyclohexyl(1,1-dideutero-2-methylpropyl)amino)-2′-(1H-tetrazol-5-yl)biphenyl-3-yl)-3-(2-fluorophenyl)urea] stands 2.54 nM.
Under `[2H]C([2H])(C(C)C)N(c1ccc(-c2ccccc2C(=O)O)cc1NC(=O)Nc1ccccc1F)C1CCCCC1` [Example 33, 4′-(Cyclohexyl(1,1-dideutero-2-methylpropyl)amino)-3′-(3-(2-fluorophenyl)ureido)biphenyl-2-carboxylic acid] stands 4.99 nM.
`[2H]C([2H])(C(C)C)N(c1ccc(-c2cc(F)ccc2C(=O)O)cc1NC(=O)Nc1ccccc1F)C1CCCCC1` [Example 34, 4′-(Cyclohexyl(1,1-dideutero-2-methylpropyl)amino)-5-fluoro-3′-(3-(2-fluorophenyl)ureido)biphenyl-2-carboxylic acid] showed an IC50 of 4.01 nM.
As to `Cc1ccc(NC(=O)Nc2cc(-c3cscc3C(=O)O)ccc2N(CC(C)C)CC(C)C)cc1` [Example 35, 4-(4-(Diisobutylamino)-3-(3-p-tolylureido)phenyl)thiophene-3-carboxylic acid], half-maximal inhibition (IC50) was put at 10 nM.

For the origin of these results see patent US9758492B2, “IDO inhibitors” (Bristol-Myers Squibb Company, priority 2013, dated 2017).
